According to patent publication US9084806B2, “Hypoxia-responsive nanoparticle for therapy and imaging of hypoxia-involving diseases” (RESEARCH & BUSINESS FOUNDATION SUNGKYUNKWAN UNIVERSITY, priority 2012, dated 2015):
“Also recorded” adds a separate entry of the source.

Experiments:
[1] = cited from earlier work
[2] = system: SCC7 cells; assay: In vitro cytotoxicity, MTT assay; type: cell-based; conditions: 24 h, various concentrations
Description: To evaluate in vitro cytotoxicity of HR-NPs, they were exposed to the SCC7 cells for 24 h at 37° C., after which the cell viability was measured using the MTT assay (FIG. 6a).
SCC7 (squamous carcinoma) cell lines, obtained from the American Type Culture Collection (Rockville, Md., USA), were cultured in RPMI 1640 medium (Gibco, Grand Island, N.Y., USA) containing 10% (v/v) fetal bovine serum and 1% (w/v) penicillin-streptomycin at 37° C. in a humidified 5% CO2-95% air atmosphere. The cells were seeded at a density of 1 104 cells/well in 96-well flat-bottomed plates. After one day of growth, the cells were washed twice with a PBS (pH 7.4) and incubated for 24 h with various concentrations of free DOX or DOX-HR-NPs (HR-NP8 and HR-NP11) under the hypoxic or normoxic condition. The cells were then washed twice with a PBS (pH 7.4) and the fresh culture medium was added. Twenty microliters of 3-(4,5-dimethylthiazol-2-yl)-2,5-diphenyltetrazolium bromide solution (5 mg/ml in PBS) were added to each well, and the cells were incubated for an additional 4 h at 37° C. Subsequently, the medium was removed, and the cells were dissolved in DMSO. The absorbance at 570 nm was measured using a microplate reader (BioTek, Seoul, Korea).

[3] = system: SCC7 cancer xenografts; assay: In vivo antitumor efficacy; parameters: species or system mice; conditions: DOX dose 5 mg/kg, once every three days
Description: To evaluate the anti-tumor efficacy of HR-NPs, SCC7 tumor bearing mice were prepared, as previously described. Mice were divided into three groups: (i) normal saline (ii) free DOX at 5 mg/kg, and (iii) DOX-HR-NP11 at 5 mg DOX/kg. When tumors reached 8 mm in diameter, each sample was injected once every three days. Tumor volumes were calculated as a×b^2/2, were a was the largest and b the smallest diameter. The statistical significance of differences (p<0.05) between groups tested was determined using one-way ANOVA test.

Row | SMILES | solubility in water [1] | cytotoxicity in the hypoxic condition compared with the normoxic condition [2] | change in tumor volume [3]
1 | Nc1ncc[nH]1 [2-aminoimidazole] | readily dissolving in water; also recorded: highly water-soluble |  | 
2 | COc1cccc2c1C(=O)c1c(O)c3c(c(O)c1C2=O)C[C@@](O)(C(=O)CO)C[C@@H]3O[C@H]1C[C@H](N)[C@H](O)[C@H](C)O1 [free DOX, doxorubicin] |  | comparable | considerable increase
3 | O=[N+]([O-])c1ncc[nH]1 [2-nitroimidazole] | poorly soluble in water |  | 
